Results on nine molecules are retold here after patent publication US9617256B2 (priority 2007, dated 2017).

≈ marks a conversion by molar mass, not a printed value. Read-outs that look alike come from different tables or passages of the source.

For assay [1], the system named is AECO001 (ATCC25922). Kind of assay: MIC broth microdilution, AECO001. It is filed as cell-based, E. coli. The settings on record: for MIC: Escherichia coli. The procedure, abridged:
(§1)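 Minimum inhibitory concentrations followed CLSI broth microdilution guidelines: cation-adjusted Mueller-Hinton broth, 2-fold serial drug dilutions, final inoculum 3×10^5–7×10^5 CFU/mL, ambient air at 35° C. for 18-24 hours. Quality-control strains and levofloxacin monitored performance.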

Assay [2] relates to APAE001 (ATCC27853). Briefly: MIC broth microdilution, APAE001. The settings on record: Pseudomonas aeruginosa, ATCC27853, read-out: MIC APAE001, APAE001 (ATCC27853). It is filed as cell-based, P. aeruginosa. The procedure, abridged:
as §1
(Broth dilution looks for growth in wells or tubes with falling amounts of substance.)

Assay [3] concerns APAE006 in the presence of 8 micrograms per milliliter of polymyxin B nonapeptide. It is filed as cell-based, P. aeruginosa. Particulars: APAE006 with 8 micrograms per milliliter polymyxin B nonapeptide. The gist of the method:
(§2)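 Two-fold drug dilutions in cation-adjusted MHB were inoculated to 3×10^5–7×10^5 CFU/mL and held at 35° C. for 18-24 hours (ambient air), following CLSI. APAE006 is an efflux-deficient P. aeruginosa.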

Assay [4] deals with AABA1060 (clinical isolate of Acinetobacter baumannii). Kind of assay: MIC broth microdilution, AABA1060. In kind it is cell-based. Particulars: Acinetobacter baumannii, read-out: MIC AABA1060. The gist of the method:
as §1

Assay [5] deals with AECO063 (ATCC25922 bearing an acrAB mutation). Briefly: microbe, parasite or virus in culture. In kind it is cell-based, E. coli. The settings on record: Escherichia coli, ATCC25922, read-out: MIC AECO063. The procedure, abridged:
as §1

Assay [6] deals with ASAU001 (laboratory strain of S. aureus, ATCC29213). Kind of assay: MIC broth microdilution, ASAU001. The settings on record: Staphylococcus aureus, ATCC29213, read-out: MIC ASAU001. In kind it is cell-based. The procedure, abridged: as §1
In assay [7] the test system is APAE006 (strain of P. aeruginosa in which all efflux pumps are inactivated). Kind of assay: microbe, parasite or virus in culture. In kind it is cell-based. The settings on record: Pseudomonas aeruginosa, read-out: MIC APAE006, APAE006, all efflux pumps inactivated. The procedure, abridged: as §2
Setting [8] is: ATCC25922, read-out: MIC AECO001.
[9] abbreviates: ATCC25922, read-out: MIC AECO001 HSA AGP.

`CC(C)(O)[C@H](NC(=O)c1ccc(C#Cc2ccc(CN3CCCOCC3)cc2)cc1)C(=O)NO` [Example 122-8]: the MIC in assay [1] (setting [8]) is under 2 µg/mL; in assay [1] (setting [9]), under 2 µg/mL; in assay [2], under 2 µg/mL; in assay [4], 2 to 16 µg/mL (≈ 4.3 to 34.4 µM); in assay [5] it was under 2 µg/mL; in assay [6], 16 to 64 µg/mL (≈ 34.4 to 137 µM). Besides, the MIC in assay [7] was under 2 µg/mL. Also, in assay [3], the “MIC APAE006 + PMBN” value is on record as “A (MIC's of 2.0 μg/mL or less = A)”.

Take `C[C@@H](N)[C@H](NC(=O)c1ccc(C#CC(O)c2ccc(CO)cc2)cc1)C(=O)NO` (stereo partly shown) [Example 137-18]: the MIC in assay [1] (setting [8]), in assay [1] (setting [9]), in assay [2], in assay [4], in assay [5] and in assay [6] was 16 to 64 µg/mL (≈ 40.3 to 161 µM) in each case. Besides, the MIC in assay [7] lay within 2 to 16 µg/mL (≈ 5.03 to 40.3 µM). Also, the “MIC APAE006 + PMBN” value in assay [3] is listed as “B (MIC's of greater than 2.0 μg/mL to 16.0 μg/mL = B)”.

Take `CCCC#CC#Cc1ccc(C(=O)N[C@H](C(=O)NO)C(C)(C)N)cc1` [Example 91-9]: the MIC in assay [1] (setting [8]) is under 2 µg/mL; in assay [1] (setting [9]) it was under 2 µg/mL; in assay [2], under 2 µg/mL; in assay [4], under 2 µg/mL; in assay [5], under 2 µg/mL; in assay [6], 2 to 16 µg/mL (≈ 5.86 to 46.9 µM). Also, in assay [7], the MIC is under 2 µg/mL. For the same molecule, the “Ratio of MICs on AECO001 [Cpd (A = —CHCH3NH2)/Cpd (A = —C(CH3)2NH2)]” value in assay [1] (MIC of paired compound with A = —CHCH3NH2 divided by MIC of compound with A = —C(CH3)2NH2, n=2 data, pairs identical except for the A moiety) came to 5.2. Also, in assay [3], the “MIC APAE006 + PMBN” value is on record as “A (MIC's of 2.0 μg/mL or less = A)”.

Take `CC(C)CC#CC#Cc1ccc(C(=O)N[C@H](C(=O)NO)C(C)(C)O)cc1` [Example 91-19]: the MIC in assay [1] (setting [8]) is under 2 µg/mL; in assay [1] (setting [9]) it was under 2 µg/mL; in assay [2], 2 to 16 µg/mL (≈ 5.61 to 44.9 µM); in assay [4], 2 to 16 µg/mL (≈ 5.61 to 44.9 µM); in assay [5] it was under 2 µg/mL; in assay [6], 16 to 64 µg/mL (≈ 44.9 to 180 µM). Also, in assay [7], the MIC was under 2 µg/mL. The “MIC APAE006 + PMBN” value in assay [3] is on record as “A (MIC's of 2.0 μg/mL or less = A)”.

In the case of `C[C@@H](N)[C@H](NC(=O)c1ccc(C#CC#CCC2CCCC2)cc1)C(=O)NO` [Example 91-25], the MIC in assay [1] (setting [8]), in assay [1] (setting [9]), in assay [2], in assay [4], in assay [5] and in assay [6] was 16 to 64 µg/mL (≈ 43.5 to 174 µM) each time. In addition, the MIC in assay [7] is 2 to 16 µg/mL (≈ 5.44 to 43.5 µM). Besides, the “MIC APAE006 + PMBN” value in assay [3] was “B (MIC's of greater than 2.0 μg/mL to 16.0 μg/mL = B)”.

For the molecule `C[C@@H](O)[C@H](NC(=O)c1ccc(C#Cc2ccncc2)cc1)C(=O)NO` [Example 133-13], the MIC in assay [1] (setting [8]) lay in the range of 16 to 64 µg/mL (≈ 47.1 to 189 µM); in assay [1] (setting [9]), 16 to 64 µg/mL (≈ 47.1 to 189 µM); in assay [2], 16 to 64 µg/mL (≈ 47.1 to 189 µM); in assay [4], 16 to 64 µg/mL (≈ 47.1 to 189 µM); in assay [5] it was 2 to 16 µg/mL (≈ 5.89 to 47.1 µM); in assay [6], 16 to 64 µg/mL (≈ 47.1 to 189 µM). Moreover, the MIC in assay [7] was under 2 µg/mL. For the same molecule, the “MIC APAE006 + PMBN” value in assay [3] is given as “A (MIC's of 2.0 μg/mL or less = A)”.

For the molecule `C[C@@H](N)[C@H](NC(=O)c1ccc(C#C/C=C/c2cccnc2)cc1)C(=O)NO` [Example 106-4], the MIC in assay [1] (setting [8]) was 2 to 16 µg/mL (≈ 5.49 to 43.9 µM); in assay [1] (setting [9]), 16 to 64 µg/mL (≈ 43.9 to 176 µM); in assay [2], 2 to 16 µg/mL (≈ 5.49 to 43.9 µM); in assay [4], 16 to 64 µg/mL (≈ 43.9 to 176 µM); in assay [5], under 2 µg/mL; in assay [6], 16 to 64 µg/mL (≈ 43.9 to 176 µM). In addition, the MIC in assay [7] is under 2 µg/mL. Also, in assay [3], the “MIC APAE006 + PMBN” value is on record as “A (MIC's of 2.0 μg/mL or less = A)”.

Take `C[C@@H](N)[C@H](NC(=O)c1ccc(C#CC#Cc2cnn(C)c2)cc1)C(=O)NO` [Example 89-1, N-((2S,3R)-3-amino-1-(hydroxyamino)-1-oxobutan-2-yl)-4-((1-methyl-1H-pyrazol-4-yl)buta-1,3-diynyl)benzamide]: the MIC was under 2 µg/mL in assay [1] (setting [8]); 2 to 16 µg/mL (≈ 5.47 to 43.8 µM) in assay [1] (setting [9]); under 2 µg/mL in assay [2]; 2 to 16 µg/mL (≈ 5.47 to 43.8 µM) in assay [4]; under 2 µg/mL in assay [5]; 16 to 64 µg/mL (≈ 43.8 to 175 µM) in assay [6]. In assay [7], the MIC is under 2 µg/mL. In assay [3], the “MIC APAE006 + PMBN” value was “A (MIC's of 2.0 μg/mL or less = A)”.

As for `CC(C)(C)CNCc1ccc(C#Cc2ccc(C(=O)N[C@H](C(=O)NO)C(C)(C)N)cc2)cc1` [Example 122-2], the MIC is under 2 µg/mL in assay [1] (setting [8]); 2 to 16 µg/mL (≈ 4.44 to 35.5 µM) in assay [1] (setting [9]); under 2 µg/mL in assay [2]; 2 to 16 µg/mL (≈ 4.44 to 35.5 µM) in assay [4]; under 2 µg/mL in assay [5]; 16 to 64 µg/mL (≈ 35.5 to 142 µM) in assay [6]. Also, the MIC in assay [7] was under 2 µg/mL. Also, in assay [3], the “MIC APAE006 + PMBN” value is given as “A (MIC's of 2.0 μg/mL or less = A)”.
